Measured values published in article PMC5048153 (Scientific Reports, 2016).
Counter-ions that a name gives are not always drawn.

Experiments:
[1] = test system: corticosterone-injured PC12 cells; assay: Protective effects on corticosterone-injured PC12 cells (MTT); format: cell-based, rat; parameters: key to PR (protection rate), Table S1: compounds did not shown protection effects on corticosterone-injured PC12 cells; details: 24 h after treatment; for PR (protection rate), Table S1: 1.25µM; for PR (protection rate): 200 μM corticosterone
Description: PC12 cells were purchased from American Type Culture Collection and were maintained in DMEM medium supplemented with penicillin (100 unit/ml), streptomycin (100 μg/ml), 5% fetal bovine serum (FBS), and 10% horse serum at 37 °C in humidified atmosphere with 5% CO2. The detailed procedures were performed referring to the reported literatures. Briefly, PC12 cells of logarithmic growth phase were collected, re-suspended and then seeded at a density of 1 × 10^5 cells per well in 96-well plates and cultured in the DMEM medium with 5% horse serum, 10% FBSfor 24 h.
After incubation with compounds, 20 μl of 5 mg/ml MTT solution was added to each well and cultured at 37 °C for 2 h–4 h. Then, the culture medium was removed, and 150 μl dimethyl sulfoxide(DMSO) was added to each well for 15 min at room temperature. The absorbance of each well was measured at 570 nm using a microplate reader. The protective rates (PR) were calculated according to equation (1).

HEK293 cells = assay: Cytotoxicity on HEK293 cells (MTT); format: cell-based, human; details: after treatment; for IR (inhibitory rate) HEK293: 100μM; for inhibition at 100 µM: Homo sapiens, HEK293, 100μM, read-out: IR (inhibitory rate) HEK293
Description: (§1) Human normal hepatic L02 cells, human embryonic kidney cell line 293 cells (HEK293) and Rattus myoblast cell line H9C2 cells were respectively seeded in 96-well plates at a density of 4 × 10^3 cells per well and cultured in the 1640 or DMEM medium, with the supplement of 10% fetal bovine serum, penicillin (100 unit/ml), streptomycin (100 μg/ml) in a humidified incubator with 5% CO2 for 24 h. […] The cytotoxicities of the compounds were evaluated by MTT method.

L02 cells = assay: Cytotoxicity on L02 cells (MTT); format: cell-based, human; details: after treatment; for IR (inhibitory rate) L02: 100μM; for inhibition at 100 µM: Homo sapiens, L02, 100μM, read-out: IR (inhibitory rate) L02
Description: as §1

Compound | PR (protection rate), Table S1 [1] | IR (inhibitory rate) HEK293 (HEK293 cells) [%] | IR (inhibitory rate) L02 (L02 cells) [%] | PR (protection rate) ([1]; 5 μM) [%] | PR (protection rate) ([1]; […]) [%] | inhibition at 100 µM (HEK293 cells) [%] | inhibition at 100 µM (L02 cells) [%] | PR (protection rate) ([1]; 1.25 μM)
1-(3,5-Dimethylpyridin-4-yl)-3-(2-(7-methoxy-3,4-dihydroisoquinolin-1-yl)ethyl)urea oxalate [6b-11] | - | 28.1 | 27.3 |  |  |  |  | 
2,6-Difluoro-N-(2-(7-methoxy-3,4-dihydroisoquinolin-1-yl)ethyl)benzamide oxalate [6a-34] | - | 47.1 | 44.0 |  |  |  |  | 
2-(3-(2-(7-Methoxy-3,4-dihydroisoquinolin-1-yl)ethyl)ureido)thiazole-5-carboxylate oxalate [6b-8] | - | 49.2 | 50.0 |  |  |  |  | 
2-((2-(7-Methoxy-3,4-dihydroisoquinolin-1-yl)ethyl)carbamoyl)phenylacetate oxalate [6a-20] | - | 57.1 | 54.9 |  |  |  |  | 
4-Fluoro-N-(2-(7-methoxy-3,4-dihydroisoquinolin-1-yl)ethyl)benzamide oxalate [6a-33] | - | 43.0 | 45.2 |  |  |  |  | 
CCC(=O)NCCC1=NCCc2ccc(OC)cc21.O=C(O)C(=O)O [6a-2, N-(2-(7-Methoxy-3,4-dihydroisoquinolin-1-yl)ethyl) propionamide oxalate] |  |  |  | 3.1 | 18.1 | 23.4 | 12.4 | 
COc1ccc2c(c1)C(CCNC(=O)C(F)(F)F)=NCC2 [6a-3, 2,2,2-Trifluoro-N-(2-(7-methoxy-3,4-dihydroisoquinolin-1-yl)ethyl) acetamideoxalate] | -^b |  |  |  |  | 60.1 | 59.6 | 
COc1ccc2c(c1)C(CCNC(=O)C1CC1)=NCC2 [6a-4, N-(2-(7-Methoxy-3,4-dihydroisoquinolin-1-yl)ethyl) cyclopropanecarboxamideoxalate] | - |  |  |  |  | 46.2 | < 0 | 
COc1ccc2c(c1)C(CCNC(=O)c1ccc(Cl)cc1)=NCC2 [6a-5, 4-Chloro-N-(2-(7-methoxy-3,4-dihydroisoquinolin-1-yl)ethyl) benzamideoxalate] | 4.1% |  |  |  |  | 60 | 67 | 
COc1ccc(C(=O)NCCC2=NCCc3ccc(OC)cc32)cc1 [6a-6, 4-Methoxy-N-(2-(7-methoxy-3,4-dihydroisoquinolin-1-yl)ethyl) benzamideoxalate] | - |  |  |  |  | 34.1 | 24.9 | 
COc1ccc2c(c1)C(CCNC(=O)c1ccccc1Cl)=NCC2 [6a-7, 2-Chloro-N-(2-(7-methoxy-3,4-dihydroisoquinolin-1-yl)ethyl) benzamide oxalate] | - |  |  |  |  | 27.4 | 23.5 | 
COc1ccc2c(c1)C(CCNC(=O)c1ccc(C(F)(F)F)cc1)=NCC2 [6a-8, N-(2-(7-Methoxy-3,4-dihydroisoquinolin-1-yl)ethyl) -4-(trifluoromethyl) benzamideoxalate] | - |  |  |  |  | 38.4 | 60.6 | 
COc1ccc2c(c1)C(CCNC(=O)c1ccco1)=NCC2 [6a-9, N-(2-(7-Methoxy-3,4-dihydroisoquinolin-1-yl)ethyl) furan-2-carboxamideoxalate] |  |  |  | 7.9 | 14.9 | 60.1 | 52.6 | 
COc1ccc2c(c1)C(CCNC(=O)c1ccccc1)=NCC2.O=C(O)C(=O)O [6a-10, N-(2-(7-Methoxy-3,4-dihydroisoquinolin-1-yl)ethyl)benzamide oxalate] | - |  |  |  |  | 27.6 | 22.5 | 
COc1ccc2c(c1)C(CCNC(=O)c1ccc(F)cc1)=NCC2 [6a-12, 4-Fluoro-N-(2-(7-methoxy-3,4-dihydroisoquinolin-1-yl)ethyl) benzamide oxalate] | 0.7% |  |  |  |  | 43.8 | 19.1 | 
COc1ccc2c(c1)C(CCNC(=O)c1ccc(C(C)C)cc1)=NCC2 [6a-13, 4-Isopropyl-N-(2-(7-methoxy-3,4-dihydroisoquinolin-1-yl)ethyl) benzamide oxalate] | - |  |  |  |  | 57.6 | 43 | 
COc1ccc(C(=O)NCCC2=NCCc3ccc(OC)cc32)c(OC)c1 [6a-15, 2,4-Dimethoxy-N-(2-(7-methoxy-3,4-dihydroisoquinolin-1-yl)ethyl) benzamide oxalate] | 3.7% |  |  |  |  | 56.1 | 49.5 | 
COc1ccc2c(c1)C(CCNC(=O)c1ccc(C(C)=O)cc1)=NCC2 [6a-16, 4-Acetyl-N-(2-(7-methoxy-3,4-dihydroisoquinolin-1-yl)ethyl) benzamideoxalate] | 6.1% |  |  |  |  | < 20 | < 20 | 
COc1ccc2c(c1)C(CCNC(=O)Cc1cc3ccccc3[nH]1)=NCC2.O=C(O)C(=O)O [6a-17, 2-(1H-Indol-2-yl)-N-(2-(7-methoxy-3,4-dihydroisoquinolin-1-yl)ethyl)acetamide oxalate] | - |  |  |  |  | 55.8 | 42.2 | 
COc1ccc2c(c1)C(CCNC(=O)c1ccc(C(C)(C)C)cc1)=NCC2.O=C(O)C(=O)O [6a-18, 4-(tert-Butyl)-N-(2-(7-methoxy-3,4-dihydroisoquinolin-1-yl)ethyl)benzamide oxalate] | - |  |  |  |  | 53.3 | 63.2 | 
COc1ccc2c(c1)C(CCNC(=O)c1ccc(C#N)cc1)=NCC2.O=C(O)C(=O)O [6a-19, 4-Cyano-N-(2-(7-methoxy-3,4-dihydroisoquinolin-1-yl)ethyl)benzamide oxalate] | - |  |  |  |  | 55.9 | 45 | 
COc1ccc2c(c1)C(CCNC(=O)c1cccnc1Cl)=NCC2.O=C(O)C(=O)O [6a-21, 2-Chloro-N-(2-(7-methoxy-3,4-dihydroisoquinolin-1-yl)ethyl)nicotinamide oxalate] | 15.2% |  |  |  |  | 49.8 | 58.8 | above 10%
COc1ccc2c(c1)C(CCNC(=O)c1cccc(C)c1)=NCC2.O=C(O)C(=O)O [6a-22, N-(2-(7-Methoxy-3,4-dihydroisoquinolin-1-yl)ethyl)-3-methylbenzamide oxalate] | - |  |  |  |  | 22.2 | 31.8 | 
COc1ccc2c(c1)C(CCNC(=O)c1cccnc1)=NCC2.O=C(O)C(=O)O [6a-23, N-(2-(7-Methoxy-3,4-dihydroisoquinolin-1-yl)ethyl)nicotinamide oxalate] | - |  |  |  |  | 57.8 | 66.9 | 
COc1ccc2c(c1)C(CCNC(=O)c1ccccn1)=NCC2.O=C(O)C(=O)O [6a-24, N-(2-(7-Methoxy-3,4-dihydroisoquinolin-1-yl)ethyl)picolinamide oxalate] | - |  |  |  |  | 62.9 | 55.8 | 
COc1ccc2c(c1)C(CCNC(=O)c1ccc(C)cc1)=NCC2.O=C(O)C(=O)O [6a-25, N-(2-(7-Methoxy-3,4-dihydroisoquinolin-1-yl)ethyl)-4-methylbenzamide oxalate] | - |  |  |  |  | 65.7 | 50.8 | 
COc1ccc2c(c1)C(CCNC(=O)c1ccc3ccccc3n1)=NCC2.O=C(O)C(=O)O [6a-26, N-(2-(7-Methoxy-3,4-dihydroisoquinolin-1-yl)ethyl)quinoline-2-carboxamide oxalate] | - |  |  |  |  | 48.6 | 42.7 | 
COc1ccc2c(c1)C(CCNC(=O)Nc1ccc(Cl)c(C(F)(F)F)c1)=NCC2 [6b-9, 1-(4-Chloro-3-(trifluoromethyl)phenyl)-3-(2-(7-methoxy-3,4-dihydroisoquinolin-1-yl)ethyl)urea oxalate] |  |  |  |  |  | 31.6 | 25.7 | 
COc1ccc2c(c1)C(CCNC(=O)NC(C)C)=NCC2 [6b-10, 1-Isopropyl-3-(2-(7-methoxy-3,4-dihydroisoquinolin-1-yl)ethyl)urea oxalate] |  |  |  |  |  | 34.7 | 31.9 | 
COc1ccc2c(c1)C(CCNC(=O)Nc1ccc(Cl)cc1[N+](=O)[O-])=NCC2 [6b-16, 1-(4-Chloro-2-nitrophenyl)-3-(2-(7-methoxy-3,4-dihydroisoquinolin-1-yl)ethyl)urea oxalate] |  |  |  |  |  | 52 | 53.2 | 
